Measurements reported in PubChem BioAssay AID2060882 (Molecular Pharmacology Branch, DTP, NCI, 2025).

Tested on: 898857-211-R-J1-PDC complex spheroids, growth % test/control
Experiment: Anticancer human tumor 898857-211-R-J1-PDC patient-derived melanoma cell line growth inhibition [RAS]
Settings: for IC50: curve of first compound; for viability, T/C: stronger effect = lower value
Method in brief: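 Agents were tested in combination matrices in half-log decrements from a top concentration at or near clinical Cmax (10 microM if undetermined). Targets were multi-cell spheroids of tumour lines plus HUVEC and MSC stromal cells.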

[1] = second compound 0.000949 µM, first compound 0.0316 µM
[2] = second compound 0.000949 µM, first compound 0.1 µM
[3] = second compound 0.003 µM, first compound 0.0316 µM
[4] = second compound 0.003 µM, first compound 0.1 µM
[5] = second compound 0.00949 µM, first compound 0.0316 µM
[6] = second compound 0.00949 µM, first compound 0.1 µM
[7] = second compound 0.03 µM, first compound 0.0316 µM
[8] = second compound 0.03 µM, first compound 0.1 µM
[9] = second compound 0.0949 µM, first compound 0.0316 µM
[10] = second compound 0.0949 µM, first compound 0.1 µM
[11] = second compound 0.3 µM, first compound 0.0316 µM
[12] = second compound 0.3 µM, first compound 0.1 µM
[13] = second compound 0.000949 µM, first compound 0.316 µM
[14] = second compound 0.000949 µM, first compound 1 µM
[15] = second compound 0.000949 µM, first compound 3.16 µM
[16] = second compound 0.000949 µM, first compound 10 µM
[17] = second compound 0.003 µM, first compound 0.316 µM
[18] = second compound 0.003 µM, first compound 1 µM
[19] = second compound 0.003 µM, first compound 3.16 µM
[20] = second compound 0.003 µM, first compound 10 µM
[21] = second compound 0.00949 µM, first compound 0.316 µM
[22] = second compound 0.00949 µM, first compound 1 µM
[23] = second compound 0.00949 µM, first compound 3.16 µM
[24] = second compound 0.00949 µM, first compound 10 µM
[25] = second compound 0.03 µM, first compound 0.316 µM
[26] = second compound 0.03 µM, first compound 1 µM
[27] = second compound 0.03 µM, first compound 3.16 µM
[28] = second compound 0.03 µM, first compound 10 µM
[29] = second compound 0.0949 µM, first compound 0.316 µM
[30] = second compound 0.0949 µM, first compound 1 µM
[31] = second compound 0.0949 µM, first compound 3.16 µM
[32] = second compound 0.0949 µM, first compound 10 µM
[33] = second compound 0.3 µM, first compound 0.316 µM
[34] = second compound 0.3 µM, first compound 1 µM
[35] = second compound 0.3 µM, first compound 3.16 µM
[36] = second compound 0.3 µM, first compound 10 µM
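Further: spheroids exposed to compound for seven days before readout.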
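Wherever viability, T/C is given: 100% = DMSO vehicle control wells.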

In the case of CC(C)n1nc(-c2ccc3oc(N)nc3c2)c2c(N)ncnc21 + CCn1c(-c2cccnc2C(C)OC)c2c3cc(ccc31)N1CCOC(CC(NC(=O)C(C(C)C)N(C)C(=O)C3(F)CCN(C(=O)C#CC(C)(C)N(C)C)CC3)C(=O)N3CCCC(N3)C(=O)OCC(C)(C)C2)C1, the IC50 (second compound 0.000949 µM) is reported as 27.1 nM, the IC50 (second compound 0.003 µM) is reported as 23.8 nM and the IC50 (second compound 0.00949 µM) is reported as 23.8 nM. For the same compound, the IC50 (second compound 0.03 µM) was 21 nM, the IC50 (second compound 0.0949 µM) was 15.1 nM and the IC50 (second compound 0.3 µM) was 7.05 nM. It also gave a viability, T/C (second compound 0.000949 µM, first compound 0.000316 µM) of 107%, a viability, T/C (second compound 0.000949 µM, first compound 0.001 µM) of 91.6% and a viability, T/C (second compound 0.000949 µM, first compound 0.00316 µM) of 87.2%. The viability, T/C (second compound 0.000949 µM, first compound 0.01 µM) was 68.7%, the viability, T/C [1] was 46.4% and the viability, T/C [2] was 20.5%. For the same compound, the viability, T/C (second compound 0.003 µM, first compound 0.000316 µM) was 106%, the viability, T/C (second compound 0.003 µM, first compound 0.001 µM) was 90.9% and the viability, T/C (second compound 0.003 µM, first compound 0.00316 µM) was 78.8%. It also gave a viability, T/C (second compound 0.003 µM, first compound 0.01 µM) of 70%, a viability, T/C [3] of 44.8% and a viability, T/C [4] of 20.4%. It also gave a viability, T/C (second compound 0.00949 µM, first compound 0.000316 µM) of 99.1%, a viability, T/C (second compound 0.00949 µM, first compound 0.001 µM) of 99.2% and a viability, T/C (second compound 0.00949 µM, first compound 0.00316 µM) of 86.2%. For the same compound, the viability, T/C (second compound 0.00949 µM, first compound 0.01 µM) was 75.1%, the viability, T/C [5] was 41.3% and the viability, T/C [6] was 17.7%. The viability, T/C (second compound 0.03 µM, first compound 0.000316 µM) was 103%, the viability, T/C (second compound 0.03 µM, first compound 0.001 µM) was 86.9% and the viability, T/C (second compound 0.03 µM, first compound 0.00316 µM) was 79.9%. It also gave a viability, T/C (second compound 0.03 µM, first compound 0.01 µM) of 72.1%, a viability, T/C [7] of 36.8% and a viability, T/C [8] of 17%. For the same compound, the viability, T/C (second compound 0.0949 µM, first compound 0.000316 µM) was 89.1%, the viability, T/C (second compound 0.0949 µM, first compound 0.001 µM) was 87.2% and the viability, T/C (second compound 0.0949 µM, first compound 0.00316 µM) was 86.5%. For the same compound, the viability, T/C (second compound 0.0949 µM, first compound 0.01 µM) was 55.6%, the viability, T/C [9] was 35.5% and the viability, T/C [10] was 16.2%. The viability, T/C (second compound 0.3 µM, first compound 0.000316 µM) was 74.9%, the viability, T/C (second compound 0.3 µM, first compound 0.001 µM) was 64% and the viability, T/C (second compound 0.3 µM, first compound 0.00316 µM) was 61.1%. The viability, T/C (second compound 0.3 µM, first compound 0.01 µM) was 46.3%, the viability, T/C [11] was 30% and the viability, T/C [12] was 13.6%.
CCC(CC)c1cc(NC2CCC(N)C2)n2nccc2n1 (stereo unspecified) + CCn1c(-c2cccnc2C(C)OC)c2c3cc(ccc31)N1CCOC(CC(NC(=O)C(C(C)C)N(C)C(=O)C3(F)CCN(C(=O)C#CC(C)(C)N(C)C)CC3)C(=O)N3CCCC(N3)C(=O)OCC(C)(C)C2)C1 was tested, and the IC50 (second compound 0.000949 µM) was 1120 nM, the IC50 (second compound 0.003 µM) was 1090 nM and the IC50 (second compound 0.00949 µM) was 968 nM. The IC50 (second compound 0.03 µM) was 1040 nM, the IC50 (second compound 0.0949 µM) was 748 nM and the IC50 (second compound 0.3 µM) was 415 nM. It also gave a viability, T/C [1] of 124%, a viability, T/C [2] of 105% and a viability, T/C [13] of 101%. It also gave a viability, T/C [14] of 57.4%, a viability, T/C [15] of 1.07% and a viability, T/C [16] of 0.23%. It also gave a viability, T/C [3] of 109%, a viability, T/C [4] of 106% and a viability, T/C [17] of 103%. For the same compound, the viability, T/C [18] was 54%, the viability, T/C [19] was 0.85% and the viability, T/C [20] was 0.65%. For the same compound, the viability, T/C [5] was 103%, the viability, T/C [6] was 100% and the viability, T/C [21] was 101%. For the same compound, the viability, T/C [22] was 48.5%, the viability, T/C [23] was 1.54% and the viability, T/C [24] was 0.27%. It also gave a viability, T/C [7] of 108%, a viability, T/C [8] of 109% and a viability, T/C [25] of 102%. It also gave a viability, T/C [26] of 51.9%, a viability, T/C [27] of 0.7% and a viability, T/C [28] of 0.63%. It also gave a viability, T/C [9] of 94.9%, a viability, T/C [10] of 105% and a viability, T/C [29] of 80.4%. The viability, T/C [30] was 40.9%, the viability, T/C [31] was 0.82% and the viability, T/C [32] was 0.45%. For the same compound, the viability, T/C [11] was 83.5%, the viability, T/C [12] was 72.2% and the viability, T/C [33] was 59.9%. It also gave a viability, T/C [34] of 22.7%, a viability, T/C [35] of 1.27% and a viability, T/C [36] of 0.27%.
Work on C[C@@H](NC(=O)c1ncnc(N)c1Cl)c1ncc(C(=O)Nc2cc(C(F)(F)F)c(Cl)cn2)s1 + CCn1c(-c2cccnc2C(C)OC)c2c3cc(ccc31)N1CCOC(CC(NC(=O)C(C(C)C)N(C)C(=O)C3(F)CCN(C(=O)C#CC(C)(C)N(C)C)CC3)C(=O)N3CCCC(N3)C(=O)OCC(C)(C)C2)C1 yielded an IC50 (second compound 0.000949 µM) of 3860 nM, an IC50 (second compound 0.003 µM) of 2550 nM and an IC50 (second compound 0.00949 µM) of 3120 nM. It also gave an IC50 (second compound 0.03 µM) of 3880 nM, an IC50 (second compound 0.0949 µM) of 3030 nM and an IC50 (second compound 0.3 µM) of 1970 nM. It also gave a viability, T/C [1] of 121%, a viability, T/C [2] of 114% and a viability, T/C [13] of 112%. It also gave a viability, T/C [14] of 83.5%, a viability, T/C [15] of 56.2% and a viability, T/C [16] of 27.5%. The viability, T/C [3] was 128%, the viability, T/C [4] was 105% and the viability, T/C [17] was 103%. It also gave a viability, T/C [18] of 66.4%, a viability, T/C [19] of 45.6% and a viability, T/C [20] of 28.8%. For the same compound, the viability, T/C [5] was 114%, the viability, T/C [6] was 120% and the viability, T/C [21] was 111%. It also gave a viability, T/C [22] of 81.3%, a viability, T/C [23] of 52.1% and a viability, T/C [24] of 27.9%. The viability, T/C [7] was 123%, the viability, T/C [8] was 116% and the viability, T/C [25] was 97.4%. The viability, T/C [26] was 83.7%, the viability, T/C [27] was 53.6% and the viability, T/C [28] was 26.6%. The viability, T/C [9] was 105%, the viability, T/C [10] was 100% and the viability, T/C [29] was 87.2%. The viability, T/C [30] was 66.7%, the viability, T/C [31] was 51.7% and the viability, T/C [32] was 24.9%. For the same compound, the viability, T/C [11] was 82.9%, the viability, T/C [12] was 87.9% and the viability, T/C [33] was 73.2%. It also gave a viability, T/C [34] of 62.5%, a viability, T/C [35] of 41.8% and a viability, T/C [36] of 21.3%.
